Data on 1 molecule can be found in patent US20230271938A1, “BENZIMIDAZOLES FOR USE IN THE TREATMENT OF CANCER AND INFLAMMATORY DISEASES” (Capella Therapeutics, Inc., priority 2015, published 2023).

This assay addresses T1, BMX (Homo sapiens, UniProt P51813).
T1 sequence (P51813 1-675): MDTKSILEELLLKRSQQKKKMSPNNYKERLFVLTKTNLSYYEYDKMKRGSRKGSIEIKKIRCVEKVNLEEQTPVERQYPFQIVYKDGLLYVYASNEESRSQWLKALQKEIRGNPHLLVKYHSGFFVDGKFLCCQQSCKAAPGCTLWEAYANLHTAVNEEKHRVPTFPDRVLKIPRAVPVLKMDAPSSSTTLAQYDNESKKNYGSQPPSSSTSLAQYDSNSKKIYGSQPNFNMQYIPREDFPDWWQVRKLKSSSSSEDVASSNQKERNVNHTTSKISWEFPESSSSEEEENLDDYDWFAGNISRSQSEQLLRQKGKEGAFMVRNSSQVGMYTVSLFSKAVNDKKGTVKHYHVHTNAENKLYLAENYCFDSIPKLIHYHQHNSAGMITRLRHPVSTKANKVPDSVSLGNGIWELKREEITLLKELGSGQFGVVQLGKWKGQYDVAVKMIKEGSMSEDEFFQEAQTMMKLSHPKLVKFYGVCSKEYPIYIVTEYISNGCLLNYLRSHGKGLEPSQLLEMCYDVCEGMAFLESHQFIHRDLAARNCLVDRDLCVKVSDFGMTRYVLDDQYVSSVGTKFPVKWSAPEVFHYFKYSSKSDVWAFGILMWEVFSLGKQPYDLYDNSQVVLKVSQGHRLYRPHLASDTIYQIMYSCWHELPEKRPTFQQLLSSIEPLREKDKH
As to the kind of experiment: Inhibition of BMX kinase. It counts as biochemical. The note with it: 1% DMSO. From the text:
The Z′-LYTE® biochemical assay is a fluorescence-based, coupled-enzyme assay based on the differential sensitivity of phosphorylated and non-phosphorylated peptides to proteolytic cleavage. A peptide substrate for a kinase is labeled with two fluorophores, one at each end, to form a FRET pair.
In the primary reaction, the kinase transfers the gamma-phosphate of ATP to a single tyrosine, serine, or threonine residue in the synthetic FRET-peptide substrate. In the secondary reaction, a site-specific protease recognizes and cleaves non-phosphorylated FRET-peptides. Cleavage disrupts FRET between the donor and acceptor fluorophores on the FRET-peptide, whereas uncleaved, phosphorylated FRET-peptides maintain FRET. An inhibitory activity of a compound is thus determined from its effect on the cleavage of the synthetic FRET-peptide substrate.
Inhibition of BMX, BTK, ITK, and TXK kinases by a test compound is determined in 50 mM HEPES, pH 7.5, 0.01% BRIJ-35, 10 mM MgCl2, and 1 mM EGTA in the presence of 1% DMSO by volume.
Inhibition of BMX, BTK, PIK3C-D, ITK, TEC, and TXK kinases by compound A2 was measured using one of the assays described in Examples 2A and 3A.

As for `C=CC(=O)N1CCCC[C@@H](n2c(NC(=O)c3ccnc(C)c3)nc3cccc(OC4CCN(C(C)=O)CC4)c32)C1` [Compound A2, (R)-N-(7-((1-acetylpiperidin-4-yl)oxy)-1-(1-acryloylazepan-3-yl)-1H-benzo[d]imidazol-2-yl)-2-methylisonicotinamide], the IC50 was no more than 10 nM and the Inhibition result is given as “A (A represents a value no greater than 10 nM or no less than 90% inhibition)”.

One may read the IC50 as the concentration that inhibits the measured activity by half. The low end stands for greater potency in that assay, the high end for weaker potency in that assay.
